Assay results published in US9364405B2, “Tyrosinase inhibitors” (Avon Products, Inc., priority 2013, dated 2016).

System: Mushroom tyrosinase
Assay: Mushroom tyrosinase assay
Format: biochemical
Settings: L-Tyrosine substrate, 25° C., 30 min
Description: Mushroom tyrosinase and L-Tyrosine were obtained from Sigma-Aldrich, Inc. (St. Louis, Mo.). The enzyme activity was measured in buffer containing 100 mM phosphate buffer pH 6.8, 5% absolute ethanol, 2 micrograms/milliliter mushroom tyrosinase, and 0.2 mg/ml L-Tyrosine. The reaction (conversion of L-Tyrosine to DOPAchrome) was conducted in triplicates at 25° C. for 30 min, and absorbance was then measured at 492 nm. Kojic Acid was used as a positive control inhibitor in these assays. Percent change in tyrosinase activity relative to vehicle control was calculated.

[1] = test compound concentration 0.0010%

Cc1cc(C)cc(Nc2nc(-c3ccc(O)cc3O)cs2)c1 [AV4662]
Tyrosinase Inhibition (percent change in tyrosinase activity compared to DMSO vehicle control) [1]: −46%

CN1CCN(c2nc(-c3ccc(O)cc3O)cs2)CC1 [AV5370]
Tyrosinase Inhibition (percent change in tyrosinase activity compared to DMSO vehicle control) [1]: −75% | Tyrosinase Inhibition (percent change in tyrosinase activity compared to DMSO vehicle control) (test compound concentration 0.0100%): −59%
